Data taken from patent publication US5512553A, “7-(substituted)-8-(substituted)-9-(substituted amino)-6-demethyl-6-deoxytetracyclines” (American Cyanamid Company, priority 1995, dated 1996).
≈ marks a conversion by molar mass, not a printed value. Structures can show the parent of a compound that is named as a salt. Where two headings read alike, the source gives them in different places.

Columns and labels:
E. coli UBMS 88-1 (tetB) = assay: microbe, parasite or virus in culture; type: cell-based; settings: Escherichia coli, 18 h
Description: (§1) Method for In Vitro Antibacterial Evaluation (Table I)
(§2) The minimum inhibitory concentration (MIC), the lowest concentration of the antibiotic which inhibits growth of the test organism, is determined by the agar dilution method using Muller-Hinton II agar (Baltimore Biological Laboratories). An inoculum density of 1-5×10^5 CFU/ml and an antibiotic concentration (32-≤0.015 μg/ml) is used. The plates are incubated for 18 hours at 35° C. in a forced air incubator. The test organisms comprise strains sensitive to tetracycline and genetically defined strains that are resistant to tetracycline, due to inability to bind bacterial ribosomes (tetM).

E. coli UBMS 89-1 (tetM) = assay: microbe, parasite or virus in culture; type: cell-based; settings: Escherichia coli, 18 h
Description: as §1, §2

[1] = test system: S. aureus UBMS 88-5 (tetM); assay: microbe, parasite or virus in culture; type: cell-based; settings: Staphylococcus aureus, 18 h
Description: as §1, §2

[2] = test system: S. aureus UBMS 90-1 (tetM); assay: microbe, parasite or virus in culture; type: cell-based; settings: Staphylococcus aureus, 18 h
Description: as §1, §2

[3] = test system: S. aureus UBMS 90-2 (tetM); assay: microbe, parasite or virus in culture; type: cell-based; settings: Staphylococcus aureus, 18 h
Description: as §1, §2

[4] = test system: S. aureus UBMS 88-7 (tetK); assay: microbe, parasite or virus in culture; type: cell-based; settings: Staphylococcus aureus, 18 h
Description: as §1, §2

E. coli ATCC 25922 = assay: In vitro antibacterial evaluation, MIC by agar dilution; type: cell-based; settings: Escherichia coli
Description: as §1, §2

[5] = test system: E. coli UBMS 88-2 (sensitive); assay: as above; type: cell-based; settings: Escherichia coli, 18 h
Description: as §1, §2

[6] = test system: S. aureus IVES 2943 (meth. resistant); assay: as above; type: cell-based; settings: Staphylococcus aureus
Description: as §1, §2

S. faecal. ATCC 29212 = assay: as above; type: cell-based
Description: as §1, §2

[7] = test system: S. aureus ATCC 29213 (sensitive); assay: as above; type: cell-based; settings: Staphylococcus aureus, ATCC29213; agar dilution, Muller-Hinton II agar, 18 hours at 35° C.; S. aureus ATCC 29213 (sensitive); read-out: MIC
Description: as §1, §2

[8] = test system: S. aureus UBMS 88-4 (sensitive); assay: as above; type: cell-based; settings: Staphylococcus aureus
Description: as §1, §2

S. haemol. AVAH 88-3 = assay: as above; type: cell-based
Description: as §1, §2

Enteroc. spp. 12201 = assay: as above; type: cell-based
Description: as §1, §2

[9] = test system: S. aureus SMITH (MP) (sensitive); assay: as above; type: cell-based; settings: Staphylococcus aureus
Description: as §1, §2

[10] = test system: S. aureus IVES 1983 (MP) (meth. resistant); assay: as above; type: cell-based; settings: Staphylococcus aureus
Description: as §1, §2

[11] = test system: E. coli UBMS 89-2 (sensitive); assay: as above; type: cell-based; settings: Escherichia coli, Muller-Hinton II agar, 18 hours at 35° C.
Description: as §1, §2

[12] = test system: S. aureus UBMS 90-3 (sensitive); assay: as above; type: cell-based; settings: Staphylococcus aureus
Description: as §1, §2

[13] = test system: S30 extract from derivative of E. coli MRE 600 containing the tetM determinant; assay: E. coli in vitro cell free protein translation system, TetM S30; type: biochemical; settings: for % Inhibition TetM S30: 35S-methionine incorporation, 30 minutes at 37° C.
Text: (§3) E. coli in Vitro protein Translation System (Table II)
(§4) An in vitro, cell free, protein translation system using extracts from E. coli strain MRE 600 (tetracycline sensitive) and a derivative of MRE 600 containing the tetM determinant has been developed based on literature methods J. M. Pratt, Coupled Transcription-translation in Prokaryotic Cell-free Systems, Transcription and Translation, a Practical Approach, (B. D. Hames and S. J. Higgins, eds) p. 179-209, IRL Press, Oxford-Washington, 1984!.
(§5) Using the system described above, the tetracycline compounds of the present invention are tested for their ability to inhibit protein synthesis in vitro. Briefly, each 10 μl reaction contains S30 extract (a whole extract) made from either tetracycline sensitive cells or an isogenic tetracycline resistant (tetM) strain, low molecular weight components necessary for transcription and translation (i.e., ATP and GTP), a mix of 19 amino acids (no methionine), ^35 S labeled methionine, DNA template (either pBR322 or pUC119), and either DMSO (control) or the novel tetracycline compound to be tested ("novel TC") dissolved in DMSO.
(§6) The reactions are incubated for 30 minutes at 37° C. Timing is initiated with the addition of the S30 extract, the last component to be added. After 30 minutes, 2.5 μl of the reaction is removed and mixed with 0.5 ml of 1N NaOH to destroy RNA and tRNA. Two to three ml of 25% trichloroacetic acid is added and the mixture incubated at room temperature for 15 minutes. The trichloroacetic acid precipitated material is collected on Whatman GF/C filters and washed with a solution of 10% trichloroacetic acid. The filters are dried and the retained radioactivity, representing incorporation of ^35 S-methionine into polypeptides, is counted using standard liquid scintillation methods.
(§7) The percent inhibition (P.I.) of protein synthesis is determined to be: [formula]

[14] = test system: S30 extract from E. coli strain MRE 600 (tetracycline sensitive); assay: E. coli in vitro cell free protein translation system, Wild Type S30; type: biochemical; settings: for % Inhibition Wild Type S30: 35S-methionine incorporation, 30 minutes at 37° C.
Text: as §3, §4, §5, §6, §7

[15] = agar dilution, Muller-Hinton II agar, 18 hours at 35° C., S. faecal. ATCC 29212, read-out: MIC
[16] = agar dilution, Muller-Hinton II agar, 18 hours at 35° C., S. haemol. AVAH 88-3, read-out: MIC
[17] = agar dilution, Muller-Hinton II agar, 18 hours at 35° C., Enteroc. spp. 12201, read-out: MIC
[18] = agar dilution, Muller-Hinton II agar, 18 hours at 35° C., S. aureus SMITH (MP) (sensitive), read-out: MIC
[19] = ATCC25922, agar dilution, Muller-Hinton II agar, 18 hours at 35° C., E. coli ATCC 25922, read-out: MIC
[20] = agar dilution, Muller-Hinton II agar, 18 hours at 35° C., S. aureus UBMS 90-3 (sensitive), read-out: MIC
[21] = agar dilution, Muller-Hinton II agar, 18 hours at 35° C., S. aureus UBMS 88-4 (sensitive), read-out: MIC

Row | Compound | MIC (E. coli UBMS 88-1 (tetB)) [µg/mL] | MIC (E. coli UBMS 89-1 (tetM)) [µg/mL] | MIC [1] [µg/mL] | MIC [2] [µg/mL] | MIC [3] [µg/mL] | MIC [4] [µg/mL] | MIC (E. coli ATCC 25922; ATCC25922, 18 h) [µg/mL] | MIC [5] [µg/mL] | MIC ([6]; 18 h) [µg/mL] | MIC (S. faecal. ATCC 29212; [15]) [µg/mL] | MIC [7] [µg/mL] | MIC ([8]; 18 h) [µg/mL] | MIC (S. haemol. AVAH 88-3; [16]) [µg/mL] | MIC (Enteroc. spp. 12201; [17]) [µg/mL] | MIC [9, 18] [µg/mL] | MIC ([10]; 18 h) [µg/mL] | MIC [11] [µg/mL] | MIC (E. coli ATCC 25922; [19]) [µg/mL] | MIC (S. haemol. AVAH 88-3; 18 h) [µg/mL] | MIC (S. faecal. ATCC 29212; 18 h) [µg/mL] | also measured
1 | CN(C)[C@@H]1C(O)=C(C(N)=O)C(=O)[C@@]2(O)C(O)=C3C(=O)c4c(O)cc(Cl)cc4CC3CC12 (some centres unmarked) [Compound E, 8-Chloro-4-(dimethylamino)-1,4,4a,5,5a,6-11,12a-octahydro-3,10,12,12a-tetrahydroxy-1,11-dioxo-2-naphthacenecarboxamide sulfate] | > 32 | 16 | 2 | 2 | 1 | 4 | 8 | 16 | 4 | 2 | 0.03 | 0.25 | 0.5 | 1 | 0.12 | 4 | 16 | – | – | – | –
2 | CN(C)[C@@H]1C(O)=C(C(N)=O)C(=O)[C@@]2(O)C(O)=C3C(=O)c4c(O)cc(Cl)c([N+]#N)c4CC3CC12 (stereo partly drawn) [D, 8-(Aminocarbonyl)-2-chloro-10-(dimethylamino)-5,6a,10,10a,11,11a,12-octahydro-5,7-dioxo-l-naphthacenediazonium chloride] | > 32 | 32 | 4 | 4 | 2 | 8 | – | 32 | – | 2 | 0.12 | – | – | 2 | 0.5 | – | 32 | 16 | 1 | – | MIC ([6]; agar dilution, Muller-Hinton II agar, 18 hours at 35° C., S. aureus IVES 2943 (meth. resistant), read-out: MIC): 16 µg/mL; MIC ([10]; agar dilution, Muller-Hinton II agar, 18 hours at 35° C., S. aureus IVES 1983 (MP) (meth. resistant), read-out: MIC): 16 µg/mL
3 | CN(C)[C@@H]1C(O)=C(C(N)=O)C(=O)[C@@]2(O)C(O)=C3C(=O)c4c(cc(Cl)c(N)c4O)CC3CC12 (some centres unmarked) [G, 9-Amino-8-chloro-4-(dimethylamino)-1,4,-4a,5,5a,6,11,12a-octahydro-3,10,12,12a-tetrahydroxy-1,11-dioxo-2-naphthacenecarboxamide] | > 32 | – | 1 (≈ 2.16 µM) | 1 (≈ 2.16 µM) | 0.25 (≈ 0.539 µM) | 2 (≈ 4.31 µM) | 1 (≈ 2.16 µM) | 4 (≈ 8.62 µM) | 8 (≈ 17.2 µM) | – | < 0.015 | – | 0.12 (≈ 0.259 µM) | – | < 0.015 | 8 (≈ 17.2 µM) | 4 (≈ 8.62 µM) | – | – | 0.25 (≈ 0.539 µM) | MIC [12, 20]: < 0.015 µg/mL; MIC [8, 21]: < 0.015 µg/mL; MIC (Enteroc. spp. 12201; 18 h): 2 µg/mL (≈ 4.31 µM)
4 | COC(=O)Nc1c(Cl)cc2c(c1O)C(=O)C1=C(O)[C@]3(O)C(=O)C(C(N)=O)=C(O)[C@@H](N(C)C)C3CC1C2 (stereo partly drawn) [I, 7S-(7alpha, 10aalpha)!- 9-(Aminocarbonyl)-3-chloro-7-(dimethylamino)-5,5a,6-6a,7,10,10a,12-octahydro-1,8,10a,11-tetrahydroxy-10,12-dioxo-2-naphthacenyl!-carbamic acid methyl ester] | > 32 | 8 (≈ 15.3 µM) | 0.5 (≈ 0.958 µM) | 0.5 (≈ 0.958 µM) | 0.5 (≈ 0.958 µM) | 2 (≈ 3.83 µM) | 8 (≈ 15.3 µM) | – | 4 (≈ 7.66 µM) | – | < 0.015 | 0.06 (≈ 0.115 µM) | – | – | – | 4 (≈ 7.66 µM) | 16 (≈ 30.7 µM) | – | 0.5 (≈ 0.958 µM) | 0.5 (≈ 0.958 µM) | MIC ([12]; 18 h): 0.06 µg/mL (≈ 0.115 µM); MIC (Enteroc. spp. 12201; 18 h): 2 µg/mL (≈ 3.83 µM); MIC ([9]; 18 h): 0.06 µg/mL (≈ 0.115 µM)
5 | CN(C)c1ccc(O)c2c1C[C@H]1C[C@H]3[C@H](N(C)C)C(O)=C(C(N)=O)C(=O)[C@@]3(O)C(O)=C1C2=O [L, Minocycline hydrochloride, reference compound] | 16 | 8 | 4 | 4 | 4 | – | – | 0.25 | 4 | 1 | ≤ 0.015 | – | – | 8 | 0.03 | 4 | 1 | 0.5 | – | – | % Inhibition TetM S30 ([13]; Conc. 0.1 mg/ml): 0%; % Inhibition TetM S30 ([13]; Conc. 0.3 mg/ml): 0%; % Inhibition TetM S30 ([13]; Conc. 1.0 mg/ml, hydrochloride): 19%; % Inhibition TetM S30 ([13]; Conc. 1.0 mg/ml, listed as minocycline, hydrochloride): less than 20%; inhibition of protein synthesis, in words ([13]; cell-free extracts from strain MRE600 (tetM)): resistant; MIC [12, 20]: 0.03 µg/mL; MIC [8, 21]: 0.03 µg/mL; % Inhibition Wild Type S30 ([14]; Conc. 0.1 mg/ml): 66%; % Inhibition Wild Type S30 ([14]; Conc. 0.3 mg/ml, hydrochloride): 91%; % Inhibition Wild Type S30 ([14]; Conc. 1.0 mg/ml): 90%; inhibition of protein synthesis, in words ([14]; cell-free extracts from tetracycline susceptible strain MRE600): inhibited
